Key:
[1] = system: normal human epidermal melanocytes (NHEM); assay: Melanin synthesis under stimulated condition (L-tyrosine-induced, OD at 405 nm); type: cell-based; conditions: tested at 5 µg/ml, L-tyrosine 1 mM, 10 days
Protocol: More specifically, the effect of the compound was evaluated on the following parameters: • 1. […] Melanin synthesis in NHEM stimulated by […]. • 3. […] For the tyrosinase activity assay the following concentrations were tested: 0.33, 1, 3, 9, 27 and 81 mg/ml (the spray-dried cloudberry powder was dissolved in assay buffer). For the melanin synthesis and melanocyte dendricity assay the following concentrations were tested: 0.33, 1 and 3 mg/ml (the spray-dried cloudberry powder was dissolved in culture medium). Melanocytes were seeded in 24-well plates and cultured in their culture medium for 24 hours. The medium was then replaced by culture medium containing or not (stimulated control) the inducer (L-Tyrosine) and the test compound of the reference (lipoic acid at 5 µg/ml). […] In parallel, a non-stimulated control was performed. Each experimental condition was performed in n=3. At the end of incubation, melanin was extracted by cell lysis using a 0.5 N NaOH solution. The optical density (OD) of each experimental point was measured at 405 nm and melanin quantity was calculated using melanin standards. Results were expressed in µg/ml of melanin and in percentage of inhibition compared to control.

[2] = system: co-culture of NHEM and normal human epidermal keratinocytes (NHEK); assay: Melanocyte dendricity under stimulated condition (IBMX, immunofluorescent labeling and image analysis); type: cell-based; conditions: tested at 0.025 µg/ml, IBMX 200 µM, 72 hours, read-out: % of inhibition of the formation of dendrites by the melanocytes
Protocol: Two further assays were carried out to evaluate the whitening effect of the powder, i.e. melanin synthesis in NHEM stimulated by […] and melanocyte dendricity in a co-culture of NHEM and normal human epidermal keratinocytes (NHEK) in presence of IBMX (a melanocyte dendricity stimulating agent) using in situ immunofluorescent labeling and image analysis. As reference substances in these tests lipoic acid and vincristine, respectively, were used.
More specifically, the effect of the compound was evaluated on the following parameters: • 1. Activity of tyrosinase enzyme extracted from NHEM (acellular assay). • 2. Melanin synthesis in NHEM stimulated by […]. • 3. Melanocyte dendricity in a co-culture of NHEM and normal human epidermal keratinocytes (NHEK) in presence of IBMX (a melanocyte dendricity stimulating agent) using in situ immunofluorescent labeling and image analysis.
For the tyrosinase activity assay the following concentrations were tested: 0.33, 1, 3, 9, 27 and 81 mg/ml (the spray-dried cloudberry powder was dissolved in assay buffer). […]
Images were acquired of the wells (10 photos per well). The labeling was quantified by the measurement of the dendrite fluorescence area normalized to the total number of melanocytes.

Row | Compound | % of inhibition of L-tyrosine-induced melanin synthesis [1] | inhibition at 0.025 µg/mL [2]
1 | O=C(O)CCCC[C@@H]1CCSS1 (racemic) [lipoic acid] | 108% | –
2 | CC[C@]1(O)C[C@H]2CN(CCc3c([nH]c4ccccc34)[C@@](C(=O)OC)(c3cc4c(cc3OC)N(C=O)[C@H]3[C@@](O)(C(=O)OC)[C@H](OC(C)=O)[C@]5(CC)C=CCN6CC[C@]43[C@@H]65)C2)C1 [vincristine] | – | 175%

Source: patent publication EP3365068B1, “COSMETIC COMPOSITIONS FOR SKIN WHITENING” (Lumene Oy, priority 2015, dated 2017)
